From ChEMBL document CHEMBL1140576, “Discovery of novel non-cytotoxic salicylhydrazide containing HIV-1 integrase inhibitors” (Bioorg Med Chem Lett, 2007)
pIC50: −log10 of the molar value. Blank lines part the entries; values can stand above or below the compound they belong to. Calls of active or inactive are those of the source. The rule behind the calls is not given here.

Key:
[1] = Cytotoxicity against human HCT116 cells; format: cell-based, HCT-116
[2] = test system: HCT-116; experiment: Cytotoxicity against human HCT116 cells at 20 uM; format: cell-based; settings: hct-116, 20 µM
[3] = molecular target: T1, Human immunodeficiency virus type 1 integrase (Human immunodeficiency virus 1, UniProt Q7ZJM1); experiment: Inhibition of HIV1 integrase 3'-end processing activity
T1 sequence (Q7ZJM1 whole entry): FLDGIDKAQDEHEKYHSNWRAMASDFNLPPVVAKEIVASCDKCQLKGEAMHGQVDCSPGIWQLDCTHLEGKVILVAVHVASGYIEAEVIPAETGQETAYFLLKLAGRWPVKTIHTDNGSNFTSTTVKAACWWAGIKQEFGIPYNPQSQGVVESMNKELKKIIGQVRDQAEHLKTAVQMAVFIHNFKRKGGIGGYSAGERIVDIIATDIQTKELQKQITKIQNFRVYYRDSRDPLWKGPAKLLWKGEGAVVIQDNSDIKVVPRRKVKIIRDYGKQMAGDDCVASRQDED

[4] = Cytotoxicity against human MDA-MB-435 cells; format: cell-based
[5] = test system: MDA-MB-435; experiment: Cytotoxicity against human MDA-MB-435 cells at 20 uM; format: cell-based; settings: mda-mb-435, 20 µM
[6] = molecular target: T1, Human immunodeficiency virus type 1 integrase; experiment: Inhibition of HIV1 integrase strand transfer activity
[7] = molecular target: Human immunodeficiency virus type 1 integrase (Human immunodeficiency virus 1) (UniProt Q7ZJM1); experiment: Inhibition of HIV1 integrase 3'-end processing activity at 100 uM
Sequence of Human immunodeficiency virus type 1 integrase (Human immunodeficiency virus 1) (Q7ZJM1 as listed by the source): as the sequence (Q7ZJM1 whole entry) above

[8] = molecular target: Human immunodeficiency virus type 1 integrase (Human immunodeficiency virus 1) (UniProt Q7ZJM1); experiment: Inhibition of HIV1 integrase strand transfer activity at 100 uM

SMILES: COc1ccc(-c2nnc(SCC(=O)NNC(=O)c3ccccc3O)n2-c2ccccc2)cc1OC
CC50 [1]: > 20 µM | Activity [2]: 24% | pIC50 [3]: 4.66 | CC50 [4]: > 20 µM | Activity [5]: 13% | pIC50 [6]: 4.68

pIC50 [3]: 5.05 | pIC50 [6]: 5.10
SMILES: O=C(CSc1nnc(Cc2ccccc2)n1-c1cccc(Cl)c1)NNC(=O)c1ccccc1O
CC50 [1]: > 20 µM | Activity [2]: 11% | CC50 [4]: > 20 µM | Activity [5]: 5%

SMILES: Cn1c(SCC(=O)NNC(=O)c2ccccc2O)nnc1-c1ccccc1
CC50 [1]: > 20 µM | Activity [2]: 39% | pIC50 [3]: 4.19 | CC50 [4]: > 20 µM | Activity [5]: 32% | pIC50 [6]: 4.24

SMILES: O=C(CSc1nnc(-c2ccccc2)n1Cc1ccccc1)NNC(=O)c1ccccc1O
CC50 [1]: > 20 µM | Activity [2]: 34% | pIC50 [3]: 4.68 | CC50 [4]: > 20 µM | Activity [5]: 22% | pIC50 [6]: 5.05

SMILES: O=C(CSc1nnnn1-c1ccccc1)NNC(=O)c1ccc(O)cc1O
CC50 [1]: > 20 µM | Activity [2]: 15% | pIC50 [3]: 4.17 | CC50 [4]: > 20 µM | Activity [5]: 3% | pIC50 [6]: 4.21

SMILES: Cc1ccc(-n2c(SCC(=O)NNC(=O)c3ccccc3O)nnc2-c2ccccc2)cc1
CC50 [1]: 15 µM | pIC50 [3]: 4.64 | CC50 [4]: 20 µM | pIC50 [6]: 4.92

Activity [7]: inactive | pIC50 [3]: < 4.00 | Activity [8]: inactive | pIC50 [6]: < 4.00
SMILES: O=C(CSc1nnc(-c2ccncc2)n1-c1ccccc1)N/N=C/c1ccccc1O
CC50 [1]: > 20 µM | Activity [2]: 40% | CC50 [4]: > 20 µM | Activity [5]: 44%

SMILES: COc1ccc(-n2c(Cc3ccccc3)nnc2SCC(=O)NNC(=O)c2ccccc2O)cc1
CC50 [1]: > 20 µM | Activity [2]: 0% | pIC50 [3]: 4.74 | CC50 [4]: > 20 µM | Activity [5]: 10% | pIC50 [6]: 4.77

SMILES: Cc1cc(C)nc(SCc2nnc(SCC(=O)NNC(=O)c3ccccc3O)n2-c2ccccc2)n1
CC50 [1]: > 20 µM | Activity [2]: 0% | pIC50 [3]: 4.29 | CC50 [4]: > 20 µM | Activity [5]: 3% | pIC50 [6]: 4.57

SMILES: O=C(CSc1nnc(-c2ccncc2)n1-c1ccc(F)cc1)NNC(=O)c1ccccc1O
CC50 [1]: > 20 µM | Activity [2]: 22% | pIC50 [3]: 4.31 | CC50 [4]: > 20 µM | Activity [5]: 14% | pIC50 [6]: 4.51

pIC50 [3]: < 4.00 | pIC50 [6]: < 4.00
SMILES: Cc1cc(C)nc(SCc2nnc(SCC(=O)NNC(=O)c3ccccc3O)n2C)n1
CC50 [1]: > 20 µM | Activity [2]: 21% | CC50 [4]: > 20 µM | Activity [5]: 16%

pIC50 [3]: 5.30 | pIC50 [6]: 5.52
SMILES: Cc1ccc(-n2c(SCC(=O)NNC(=O)c3ccccc3O)nnc2-c2ccccc2O)cc1
CC50 [1]: > 20 µM | Activity [2]: 26% | CC50 [4]: > 20 µM | Activity [5]: 12%

SMILES: O=C(CSc1nnc(Cc2ccccc2)n1C1CCCCC1)NNC(=O)c1ccccc1O
CC50 [1]: > 20 µM | Activity [2]: 11% | pIC50 [3]: 4.68 | CC50 [4]: > 20 µM | Activity [5]: 5% | pIC50 [6]: 4.77

SMILES: O=C(CSc1nnc(-c2ccc(Cl)cc2)n1-c1ccccc1)NNC(=O)c1ccccc1O
CC50 [1]: > 20 µM | Activity [2]: 36% | pIC50 [3]: 4.96 | CC50 [4]: > 20 µM | Activity [5]: 30% | pIC50 [6]: 5.30

pIC50 [3]: 5.10 | pIC50 [6]: 5.22
SMILES: COc1ccccc1-n1c(SCC(=O)NNC(=O)c2ccccc2O)nnc1-c1ccccc1O
CC50 [1]: 20 µM | CC50 [4]: > 20 µM | Activity [5]: 40%

SMILES: O=C(CSc1nnc(-c2ccccc2O)n1Cc1ccccc1)NNC(=O)c1ccccc1O
CC50 [1]: > 20 µM | Activity [2]: 8% | pIC50 [3]: 4.82 | CC50 [4]: > 20 µM | Activity [5]: 15% | pIC50 [6]: 5.05

Activity [7]: inactive | pIC50 [3]: < 4.00 | Activity [8]: inactive | pIC50 [6]: < 4.00
SMILES: O=C(CSc1nnc(-c2ccc(Cl)cc2)n1-c1ccccc1)N/N=C/c1ccccc1C(=O)O
CC50 [1]: > 20 µM | Activity [2]: 0% | CC50 [4]: > 20 µM | Activity [5]: 8%
